PubChem BioAssay (NCI)
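Each compound was tested at five concentrations against cells in 96-well plates for 48 hours. TGI is the concentration that stops growth completely.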

Columns and labels:
Assay in all cases: NCI-60 cell line screen, 48 h
786-0 renal = test system: 786-0 renal
A498 renal = test system: A498 renal
A549 NSCLC = test system: A549 NSCLC
ACHN renal = test system: ACHN renal
BT-549 breast = test system: BT-549 breast
CAKI-1 renal = test system: CAKI-1 renal
CCRF-CEM leukemia = test system: CCRF-CEM leukemia
COLO 205 colon = test system: COLO 205 colon
DU-145 prostate = test system: DU-145 prostate
EKVX NSCLC = test system: EKVX NSCLC
HCC-2998 colon = test system: HCC-2998 colon
HCT-116 colon = test system: HCT-116 colon
HCT-15 colon = test system: HCT-15 colon
HL-60(TB) leukemia = test system: HL-60(TB) leukemia
HOP-92 NSCLC = test system: HOP-92 NSCLC
HS 578T breast = test system: HS 578T breast
HT29 colon = test system: HT29 colon
IGROV1 ovarian = test system: IGROV1 ovarian
K-562 leukemia = test system: K-562 leukemia
KM12 colon = test system: KM12 colon
LOX IMVI melanoma = test system: LOX IMVI melanoma
M14 melanoma = test system: M14 melanoma
MALME-3M melanoma = test system: MALME-3M melanoma
MCF7 breast = test system: MCF7 breast
MDA-MB-231 breast = test system: MDA-MB-231 breast
MDA-MB-435 = test system: MDA-MB-435
MDA-N = test system: MDA-N
MOLT-4 leukemia = test system: MOLT-4 leukemia
NCI-H226 lung = test system: NCI-H226 lung
NCI-H23 lung = test system: NCI-H23 lung
NCI-H460 lung = test system: NCI-H460 lung
NCI-H522 lung = test system: NCI-H522 lung
NCI/ADR-RES ovarian = test system: NCI/ADR-RES ovarian
OVCAR-3 ovarian = test system: OVCAR-3 ovarian
OVCAR-4 ovarian = test system: OVCAR-4 ovarian
OVCAR-5 ovarian = test system: OVCAR-5 ovarian
OVCAR-8 ovarian = test system: OVCAR-8 ovarian
PC-3 prostate = test system: PC-3 prostate
RPMI-8226 leukemia = test system: RPMI-8226 leukemia
SF-268 CNS = test system: SF-268 CNS
SF-295 CNS = test system: SF-295 CNS
SF-539 CNS = test system: SF-539 CNS
SK-MEL-2 melanoma = test system: SK-MEL-2 melanoma
SK-MEL-28 melanoma = test system: SK-MEL-28 melanoma
SK-MEL-5 melanoma = test system: SK-MEL-5 melanoma
SK-OV-3 ovarian = test system: SK-OV-3 ovarian
SN12C renal = test system: SN12C renal
SNB-19 CNS = test system: SNB-19 CNS
SR leukemia = test system: SR leukemia
SW-620 colon = test system: SW-620 colon
T-47D breast = test system: T-47D breast
TK-10 renal = test system: TK-10 renal
U251 CNS = test system: U251 CNS
UACC-257 melanoma = test system: UACC-257 melanoma
UACC-62 melanoma = test system: UACC-62 melanoma
UO-31 renal = test system: UO-31 renal

Measured: TGI

CC(=O)OCCn1c(Cc2ccc([N+](=O)[O-])cc2)nn(C(C)=O)c1=O
> 100 µM: all assays above
